# Columns and labels:
# liver tissue = assay: Histology (H&E), nitrotyrosine immunohistochemistry and TUNEL staining of liver after drug challenge; assay type: in vivo, mice
# Protocol: The correlation of an imaging biomarker with histological changes in the tissue of interest is desirable to validate the use of a biomarker for indicating an intended pathological outcome. To this end, histological and immunohistochemical analysis of liver tissue was performed on mice 45 min (FIGS. 3D and 11) and 180 min (FIGS. 3E and 11) following treatment with the indicated doses of APAP.
# Animals were imaged longitudinally for the indicated lengths of time, warmed until observable sternal recumbence, and then returned to their cage. Animals were euthanized 180 min following drug treatment, and their livers were resected and placed into buffered formalin for histological examination. A separate set of animals was fasted, treated with drug, and their livers were resected after euthanasia to provide tissues for histological examination 45 min following drug treatment.
# All tissues were embedded in paraffin prior to 10 micron sectioning. Histology samples were stained by hematoxylin and eosin under standard protocols. Immunohistochemistry samples were processed using an anti-nitrotyrosine primary antibody (Life Technologies Inc., NY, USA) at 1:500 dilution, with color development according to the protocol described in the DAKO LSB+ kit. Endogenous peroxidases were quenched prior to processing. TUNEL staining was performed according to the manufacturer instructions using the ApopTag Plus Peroxidase In Situ Apoptosis Kit (EMD Millipore, Mass., USA). All images were acquired using an Olympus IX2-UCB (Olympus America Inc., PA, USA) inverted fluorescence microscope equipped with a Nuance (CRi Inc., MA, USA) hyperspectral camera capable of brightfield full color imaging.
# [1] = system: drug-induced hepatic oxidative and nitrosative stress; assay: Real-time in vivo CF-SPN imaging of drug-induced hepatotoxicity (chemiluminescence and fluorescence index); set-up: species or system female nude mice
# Protocol: Female nude mice were administered a given dose of APAP intraperitoneally, anesthetized, and fitted with tail vein catheters.
# All animal experiments involved 8-10 week old female nude mice (Charles River Laboratories International, Inc., Mass., USA). Animals were fasted for 8 h prior to imaging for all drug-induced hepatotoxicity imaging. Animals were treated intraperitoneally with sterilized saline solutions of APAP (10 mg/mL) or INH (10 mg/mL) and were then anesthetized with intraperitoneal injection of 100 mg/kg ketamine and 10 mg/mL xylazine. A tail vein catheter was inserted, and the mice were placed in an IVIS® Spectrum imaging system. Fifteen minutes after the administration of drug, 0.8 mg CF-SPN was injected intravenously through the tail vein catheter, and imaging began immediately. Luminescence images were acquired for 3 min with an open filter, and fluorescence images were acquired using autoexposure with excitation of 580±10 nm, and emission at both 680±10 nm and 820±10 nm.
# Luminescence data was processed using Living Image software (v. 4.3.1, Perkin Elmer, Mass., USA) for all experiments, in addition to fluorescence data for biodistribution experiments. For fluorescent ratiometric mapping of liver intensity, image scale bars were normalized, with the scale set to a red color scheme.
# Fluorescence images without photograph overlay were exported as TIFF, read into Matlab® (v. 8.0.0.783, The MathWorks Inc., CO, USA) where the percent difference between the fluorescence intensity at 680 nm and 820 nm was mapped for the liver region of interest. To plot the fluorescence index (FL index) over time, fluorescence intensities of the liver region of interest were extracted for images acquired with emission at 680 nm and at 820 nm using Living Image software. The intensity values, measured in units of radiance efficiency, were exported to Excel® where the percent difference in emission intensity at 680 nm and 820 nm was calculated. Finally, the FL index was calculated as the ratio of the percent difference of drug treated animals to that of control animals. All statistical analyses were performed using Prism software (v. 5.0c, GraphPad Software Inc., CA, USA).
# liver H2O2 = assay: Extension of H2O2 detection window by readministration of CF-SPN after APAP; assay type: in vivo, mice; settings: APAP 300 mg/kg i.p.
# Protocol: FIG. 10A illustrates extension luminescent images of the time course of H2O2 detection after drug challenge by readministration of CF-SPN. Mice were administered 300 mg/kg APAP (top row, 1-4) or saline (bottom row, 5-8) i.p., followed by the administration of 0.8 mg CF-SPN i.v. After 25 min, CF-NP was readministered i.v.
# FIG. 10B is a graph illustrating the quantitation of liver luminescence. Black arrow in indicates CF-SPN readministration. Numbers on images correspond to time points indicated on plot.
# This elevation in luminescence from APAP overdose was sustained over the time course of imaging (FIG. 3B). However, due to the baseline consumption of CPPO that had been observed in mouse serum (FIG. 7B), the ability to extend the H2O2 detection window with the re-administration of CF-SPN was assessed (FIG. 10). The re-administration of CF-SPN following treatment with a hepatotoxic dose of APAP (300 mg/kg) produced an elevated luminescence signal having approximately 50% of the intensity of the initial CF-SPN injection.
# [2] = system: drug-induced liver production of H2O2; settings: APAP 300 mg/kg i.p.; 0.2 mg luminol i.v., dose equal to CPPO in 0.8 mg CF-SPN
# [3] = system: APAP-induced hepatic ROS and RNS production; assay: In vivo monitoring of remediation of APAP-induced hepatotoxicity with enzyme inhibitors and antioxidant scavengers; set-up: species or system mice; settings: for FL index / ONOO/HOCl production in liver / luminescence emission / H2O2 production in liver: APAP 300 mg/kg i.p. with GSH 200 mg/kg i.v., 1-ABT 2×100 mg/kg i.p. or t-1,2-DCE 0.2 mg/kg i.p.
# Protocol: To this end, the effects of inhibitors of APAP bioactivation on in vivo hepatic ROS and RNS production were evaluated using the CF-SPNs of the disclosure (FIGS. 4A, 4C, and 4D).
# Without wishing to be bound by any one theory, a mechanism for APAP bioactivation involves CYP450-mediated oxidation to an iminoquinone, N-acetylparaquinonimine (NAPQI), which can bind directly to cellular proteins to induce mitochondrial dysfunction and the production of ONOO, or undergo reduction by molecular oxygen to form superoxide (O2.^−) and H2O2 (FIG. 4B).
# For inhibitor studies, animals were treated with 200 mg/kg of GSH intravenously 5 min prior to drug treatment (James et al., (2003) Toxicol. Sci. 75: 458-467), with 0.2 mg/kg t-1,2-DCE intraperitoneally 2 h prior to drug treatment (Jackson et al., (2000) Toxicol. Sci. 55: 266-273), or with 100 mg/kg 1-ABT intraperitoneally 12 and 24 h prior to drug treatment (as described in Jackson et al., (2000) Toxicol. Sci. 55: 266-273).
# [4] = anti-tuberculosis chemotherapy; cited from earlier work
# [5] = 200, 100, 50 mg/kg i.p., 0.8 mg CF-SPN i.v.
smiles,measurement,setting,value
"CC(=O)Nc1ccc(O)cc1 [APAP, acetaminophen]",foci positive for protein nitrotyrosyl residues or TUNEL (DNA fragmentation),liver tissue; 45 min after drug administration,no foci positive
same,histological changes in liver tissue (hematoxylin/eosin),"liver tissue; 45 min after drug challenge, any dose level (300, 150, 75 mg/kg)",No histological changes
same,immunohistochemical and histological findings in liver,"liver tissue; 180 min after administration, 300 mg/kg","significant protein nitrotyrosyl and TUNEL-positive foci, as well as hepatocellular degeneration characteristic of APAP-induced oncotic necrosis"
same,immunohistochemical or histological changes to liver tissue,"liver tissue; lower doses (150 mg/kg, 75 mg/kg)",did not induce immunohistochemical or histological changes to liver tissue
same,liver chemiluminescence (H2O2),"[1]; 150 mg/kg and 75 mg/kg i.p., 0.8 mg CF-SPN i.v.",only baseline luminescence similar to untreated mice
same,liver chemiluminescence (H2O2),"[1]; 300 mg/kg i.p., by 18 min after start of imaging, 0.8 mg CF-SPN i.v.",significant enhancement in signal
same,elevation in percent difference between fluorescence emission at 680 nm and 820 nm (ONOO/HOCl),"[1]; 53 min after CF-SPN administration, doses 300, 150, 75 mg/kg i.p.",only observed for mice receiving 300 mg/kg APAP
same,timing of increase in ONOO/HOCl generation (FL index),[1]; APAP overdose 300 mg/kg i.p.,later than the generation of H2O2
same,time after administration within which a significant decrease in H2O2 production occurs,liver H2O2,≤ 60 min
"Nc1cccc2c(=O)[nH][nH]c(=O)c12 [Luminol, luminol]",luminescent signal from liver after APAP overdose,[2],did not produce any detectable luminescent signal
"Cl/C=C/Cl [t-1,2-DCE, trans-1,2-dichloroethylene]",FL index / ONOO/HOCl production in liver,[3],suppressed ONOO/HOCl production to the same extent
same,luminescence emission / H2O2 production in liver,[3],completely prevent H2O2 production
"NNC(=O)c1ccncc1 [INH, isoniazid]",patients with associated hepatotoxicity,[4],≤ 25%
same,"severity of liver tissue degradation (histology, H&E)","liver tissue; 180 min after drug administration, 200, 100, 50 mg/kg i.p.",dose-dependent increase in the severity of liver tissue degradation
same,dose dependence of H2O2 production (chemiluminescence),[1]; [5],threshold dose-type production
same,dose dependence of ONOO/HOCl production (fluorescence index),[1]; [5],dose-dependent enhancement
same,kinetics of oxidative stress compared with APAP,"[1]; i.p., chemiluminescent channel",more short-lived oxidative burst
same,kinetics of nitrosative stress compared with APAP,"[1]; i.p., fluorescent channel",more rapidly developed and sustained induction of nitrosative stress
"Nn1nnc2ccccc21 [1-ABT, 1-aminobenzotriazole]",duration of H2O2 production after CF-SPN administration,[3]; APAP 300 mg/kg i.p. with 1-ABT 2×100 mg/kg i.p.,less than 20 min
same,FL index / ONOO/HOCl production in liver,[3],suppressed ONOO/HOCl production to the same extent
same,luminescence emission / H2O2 production in liver,[3],intense but short-lived
"N[C@@H](CCC(=O)N[C@@H](CS)C(=O)NCC(=O)O)C(=O)O [GSH, glutathione]",FL index / ONOO/HOCl production in liver,[3],"reduced level of H2O2 and ONOO/HOCl production relative to mice receiving APAP alone, but still elevated"
same,luminescence emission / H2O2 production in liver,[3],"reduced level of H2O2 and ONOO/HOCl production relative to mice receiving APAP alone, but still elevated"
